Literature values in patent publication US9522876B2, “Cytotoxic and anti-mitotic compounds, and methods of using the same” (ZYMEWORKS INC., priority 2013, dated 2016).

Tested on: cells
Conditions: related art

| Structure (SMILES) | anti-mitotic activity |
| --- | --- |
| CN[C@H](C(=O)N[C@H](C(=O)N(C)[C@H](/C=C(\C)C(=O)O)C(C)C)C(C)(C)C)C(C)(C)c1ccccc1 [HT1-286] | potent anti-mitotic activity |
| CN[C@H](C(=O)N[C@H](C(=O)N(C)[C@H](/C=C(\C)C(=O)O)C(C)C)C(C)(C)C)C(C)(C)c1cn(C)c2ccccc12 [hemiasterlin] | causes microtubule depolymerization and mitotic arrest in cells |
